How the values were obtained:
Experiment in all cases: relative viability (nuclei count vs DMSO), 5 days (fraction); higher = more cells survive
Tozasertib + Pictilisib = compound: Cc1cc(Nc2cc(N3CCN(C)CC3)nc(Sc3ccc(NC(=O)C4CC4)cc3)n2)n[nH]1 [Tozasertib] + CS(=O)(=O)N1CCN(Cc2cc3nc(-c4cccc5[nH]ncc45)nc(N4CCOCC4)c3s2)CC1 [Pictilisib] (partner 1 µM)
Method in brief: (§1)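 One day after seeding in 1536-well plates, lung cancer cell lines were dosed by pin tool. Dosing was either single-drug or a fixed anchor-drug dose plus five library-drug doses (not always all listed) in √10 steps. After 5 days, nuclei were stained in one fix-and-stain step and counted on 4× images, and relative viability is the nuclei count of treated wells over that of vehicle wells, given as the median of duplicate plates.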

Tozasertib + Luminespib = compound: Cc1cc(Nc2cc(N3CCN(C)CC3)nc(Sc3ccc(NC(=O)C4CC4)cc3)n2)n[nH]1 [Tozasertib] + CCNC(=O)c1noc(-c2cc(C(C)C)c(O)cc2O)c1-c1ccc(CN2CCOCC2)cc1 [Luminespib] (partner 0.01 µM)
Method in brief: as §1

Tozasertib + Alpelisib = compound: Cc1cc(Nc2cc(N3CCN(C)CC3)nc(Sc3ccc(NC(=O)C4CC4)cc3)n2)n[nH]1 [Tozasertib] + Cc1nc(NC(=O)N2CCC[C@H]2C(N)=O)sc1-c1ccnc(C(C)(C)C(F)(F)F)c1 [Alpelisib] (partner 2 µM)
Method in brief: as §1

Tozasertib + Olaparib = compound: Cc1cc(Nc2cc(N3CCN(C)CC3)nc(Sc3ccc(NC(=O)C4CC4)cc3)n2)n[nH]1 [Tozasertib] + O=C(c1cc(Cc2n[nH]c(=O)c3ccccc23)ccc1F)N1CCN(C(=O)C2CC2)CC1 [Olaparib] (partner 8 µM)
Method in brief: as §1

Cell Line | relative viability (Tozasertib + Pictilisib; first compound 0.004 µM) | relative viability (Tozasertib + Pictilisib; first compound 0.01265 µM) | relative viability (Tozasertib + Pictilisib; first compound 0.04 µM) | relative viability (Tozasertib + Pictilisib; first compound 0.1265 µM) | relative viability (Tozasertib + Luminespib; first compound 0.004 µM) | relative viability (Tozasertib + Luminespib; first compound 0.01265 µM) | relative viability (Tozasertib + Luminespib; first compound 0.04 µM) | relative viability (Tozasertib + Luminespib; first compound 0.1265 µM) | relative viability (Tozasertib + Alpelisib; first compound 0.004 µM) | relative viability (Tozasertib + Alpelisib; first compound 0.01265 µM) | relative viability (Tozasertib + Alpelisib; first compound 0.04 µM) | relative viability (Tozasertib + Alpelisib; first compound 0.1265 µM) | relative viability (Tozasertib + Olaparib; first compound 0.004 µM) | relative viability (Tozasertib + Olaparib; first compound 0.01265 µM) | relative viability (Tozasertib + Olaparib; first compound 0.04 µM) | relative viability (Tozasertib + Olaparib; first compound 0.1265 µM)
NCI-H1915 | 1.06 | 0.862 | 0.872 | 0.635 | 0.968 | 0.835 | 0.678 | 0.482 | 1.07 | 1.04 | 1.02 | 0.95 | 0.248 | 0.275 | 0.212 | 0.212
NCI-H1944 | 0.36 | 0.339 | 0.331 | 0.275 | 0.717 | 0.706 | 0.866 | 0.414 | 0.785 | 0.75 | 0.891 | 0.495 | 0.406 | 0.38 | 0.398 | 0.287
NCI-H1975 | 0.323 | 0.278 | 0.295 | 0.238 | 0.213 | 0.32 | 0.171 | 0.198 | 0.747 | 0.749 | 0.763 | 0.586 | 0.829 | 0.739 | 0.795 | 0.74
NCI-H1993 | – | 0.759 | – | 0.632 | 0.755 | 0.631 | 0.796 | 0.618 | 0.63 | 0.795 | 0.727 | 0.519 | 0.998 | 1.05 | 0.897 | 0.722
NCI-H2009 | 0.851 | 0.79 | – | 0.552 | 1.03 | 0.972 | 1.06 | 1.07 | 1.18 | 1.17 | 1.15 | 1.14 | 0.739 | 0.69 | 0.692 | 0.698
NCI-H2023 | 0.306 | 0.287 | 0.296 | 0.0957 | 0.811 | 0.749 | 0.9 | 0.598 | 0.645 | 0.541 | 0.539 | 0.628 | 0.486 | 0.459 | 0.553 | 0.342
NCI-H2085 | 0.454 | 0.421 | 0.486 | 0.266 | 0.473 | 0.428 | 0.442 | 0.457 | 0.999 | 0.963 | 0.873 | 0.804 | 0.82 | 0.752 | 0.782 | 0.711
NCI-H2087 | 0.928 | 0.885 | 0.933 | 0.714 | 0.175 | 0.185 | 0.177 | 0.172 | 1.08 | 1.01 | 1.21 | 0.913 | 0.595 | 0.645 | 0.609 | 0.456
NCI-H2126 | 0.505 | 0.529 | 0.532 | 0.426 | 1 | 0.935 | 0.891 | 0.865 | 0.819 | 0.748 | 0.806 | 0.769 | 0.962 | 0.939 | 0.971 | 0.92
NCI-H2170 | 0.3 | 0.327 | 0.295 | 0.276 | 0.708 | 0.767 | 0.744 | 0.689 | 0.721 | 0.769 | 0.838 | 0.679 | 0.566 | 0.636 | 0.572 | 0.519
